ChEMBL document CHEMBL5465560, “Selectivity Literature for EUbOPEN Chemogenomic Library” (2024)

Columns and labels:
[1] = biological target: Cyclin-dependent kinase-like 3 (Homo sapiens) (UniProt Q8IVW4); assay: Selectivity interaction (KinomeScan (DiscoverX)) EUB0000666a CDKL3; settings: at 10 µM
[2] = biological target: Mitogen-activated protein kinase 8 (Homo sapiens, UniProt P45983); assay: Selectivity interaction (Upstate Kinase Profiler service (Millipore)) EUB0000056c MAPK8; settings: at 1 µM
Chain of Mitogen-activated protein kinase 8 (P45983 whole entry): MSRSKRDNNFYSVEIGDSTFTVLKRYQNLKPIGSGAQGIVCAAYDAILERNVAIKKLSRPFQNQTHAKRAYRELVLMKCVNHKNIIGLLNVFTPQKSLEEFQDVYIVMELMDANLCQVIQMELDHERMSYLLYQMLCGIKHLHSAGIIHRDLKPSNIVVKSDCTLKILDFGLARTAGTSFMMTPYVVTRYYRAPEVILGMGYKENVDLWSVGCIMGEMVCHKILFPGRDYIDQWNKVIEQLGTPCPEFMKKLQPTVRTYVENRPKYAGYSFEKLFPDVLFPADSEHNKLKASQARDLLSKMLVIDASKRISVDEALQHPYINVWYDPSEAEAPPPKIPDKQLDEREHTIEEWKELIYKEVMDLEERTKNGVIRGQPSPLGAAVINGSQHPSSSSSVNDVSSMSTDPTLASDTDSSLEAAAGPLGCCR

[3] = biological target: Protein kinase C beta type (Homo sapiens, UniProt P05771); assay: Selectivity interaction (ProQinase) EUB0000171b PRKCB; settings: at 1 µM
Chain of Protein kinase C beta type (P05771 2-671 limits assumed): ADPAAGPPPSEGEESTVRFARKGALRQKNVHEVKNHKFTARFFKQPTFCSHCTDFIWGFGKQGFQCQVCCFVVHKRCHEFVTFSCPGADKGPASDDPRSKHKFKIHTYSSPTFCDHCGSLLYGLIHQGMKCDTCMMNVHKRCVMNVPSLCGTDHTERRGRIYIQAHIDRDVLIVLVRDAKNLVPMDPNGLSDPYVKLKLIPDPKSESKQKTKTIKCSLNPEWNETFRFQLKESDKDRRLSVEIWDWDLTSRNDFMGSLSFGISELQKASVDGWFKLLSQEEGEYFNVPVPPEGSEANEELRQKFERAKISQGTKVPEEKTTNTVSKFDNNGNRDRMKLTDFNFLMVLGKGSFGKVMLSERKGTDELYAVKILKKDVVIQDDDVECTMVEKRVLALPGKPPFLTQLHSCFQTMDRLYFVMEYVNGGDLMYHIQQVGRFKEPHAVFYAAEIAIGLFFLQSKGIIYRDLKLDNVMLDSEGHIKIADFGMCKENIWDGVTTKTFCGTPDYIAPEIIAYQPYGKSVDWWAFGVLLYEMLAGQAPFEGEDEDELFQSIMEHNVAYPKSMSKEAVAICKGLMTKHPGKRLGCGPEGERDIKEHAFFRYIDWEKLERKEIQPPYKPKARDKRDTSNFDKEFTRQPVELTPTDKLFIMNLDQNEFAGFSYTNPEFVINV

[4] = biological target: T1, Scaffold protein ILK (Homo sapiens) (UniProt Q13418); assay: Selectivity interaction (ActivX KiNativ screen (ex vivo kinase selectivity in human PBMCs)) EUB0001619a ILK; type: cell-based; settings: PBMC, at 1 µM
T1 sequence (whole entry): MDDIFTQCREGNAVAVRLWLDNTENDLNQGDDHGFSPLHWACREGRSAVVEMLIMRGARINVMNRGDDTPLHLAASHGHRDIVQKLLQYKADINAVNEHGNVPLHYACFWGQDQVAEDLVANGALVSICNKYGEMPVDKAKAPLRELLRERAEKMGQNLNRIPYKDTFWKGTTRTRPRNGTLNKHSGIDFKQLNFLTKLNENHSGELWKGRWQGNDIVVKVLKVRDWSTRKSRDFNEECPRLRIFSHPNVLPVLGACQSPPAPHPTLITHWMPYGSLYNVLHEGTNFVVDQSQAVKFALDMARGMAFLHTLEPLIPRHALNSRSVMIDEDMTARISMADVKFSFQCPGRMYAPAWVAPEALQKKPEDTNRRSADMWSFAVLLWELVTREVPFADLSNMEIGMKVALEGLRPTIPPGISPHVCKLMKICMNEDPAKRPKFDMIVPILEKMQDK

[5] = biological target: T2, Tyrosine-protein kinase ITK/TSK (Homo sapiens) (UniProt Q08881); assay: Selectivity interaction (KinomeScan (DiscoverX)) EUB0000607a ITK; settings: at 10 µM
T2 sequence (whole entry): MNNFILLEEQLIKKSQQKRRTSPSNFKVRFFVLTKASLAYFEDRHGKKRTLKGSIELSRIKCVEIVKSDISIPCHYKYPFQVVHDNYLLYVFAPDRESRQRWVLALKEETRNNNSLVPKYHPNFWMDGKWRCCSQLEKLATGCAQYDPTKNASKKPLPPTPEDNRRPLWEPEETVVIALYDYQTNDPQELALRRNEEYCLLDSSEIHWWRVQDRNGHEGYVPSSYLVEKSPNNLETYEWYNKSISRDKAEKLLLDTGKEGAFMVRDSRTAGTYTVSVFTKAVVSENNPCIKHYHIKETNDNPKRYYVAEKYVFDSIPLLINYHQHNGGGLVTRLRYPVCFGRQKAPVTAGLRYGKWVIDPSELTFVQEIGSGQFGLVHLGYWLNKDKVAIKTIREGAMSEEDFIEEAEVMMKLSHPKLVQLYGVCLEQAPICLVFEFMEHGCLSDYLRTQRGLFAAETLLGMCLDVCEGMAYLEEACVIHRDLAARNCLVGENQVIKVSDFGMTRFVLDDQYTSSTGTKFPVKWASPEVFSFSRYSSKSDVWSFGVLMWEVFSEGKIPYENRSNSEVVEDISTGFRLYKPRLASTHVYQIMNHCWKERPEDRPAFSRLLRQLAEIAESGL

[6] = biological target: T3, Serine/threonine-protein kinase 3 (Homo sapiens) (UniProt Q13188); assay: Selectivity interaction (Kinase panel (DSF assay)) EUB0001558a STK3
T3 sequence (whole entry): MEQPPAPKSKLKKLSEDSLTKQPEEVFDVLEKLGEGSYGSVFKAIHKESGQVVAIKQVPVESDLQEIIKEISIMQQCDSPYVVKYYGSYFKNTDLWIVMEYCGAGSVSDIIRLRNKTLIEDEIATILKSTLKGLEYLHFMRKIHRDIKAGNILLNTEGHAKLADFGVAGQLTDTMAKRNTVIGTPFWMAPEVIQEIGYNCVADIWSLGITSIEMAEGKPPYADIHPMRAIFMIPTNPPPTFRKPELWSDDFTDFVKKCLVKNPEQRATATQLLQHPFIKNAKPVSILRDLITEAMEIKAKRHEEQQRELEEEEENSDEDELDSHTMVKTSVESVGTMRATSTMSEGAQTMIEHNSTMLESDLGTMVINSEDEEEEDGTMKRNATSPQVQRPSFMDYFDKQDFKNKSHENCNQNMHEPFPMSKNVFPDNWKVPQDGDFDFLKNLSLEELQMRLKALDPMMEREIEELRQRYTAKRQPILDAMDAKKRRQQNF

[7] = biological target: T4, Inhibitor of nuclear factor kappa-B kinase subunit epsilon (Homo sapiens) (UniProt Q14164); assay: Selectivity interaction (ActivX KiNativ screen (kinase selectivity in THP-1 cell lysates)) EUB0000639a IKBKE; type: subcellular; settings: lysate, at 0.2 µM
T4 sequence (whole entry): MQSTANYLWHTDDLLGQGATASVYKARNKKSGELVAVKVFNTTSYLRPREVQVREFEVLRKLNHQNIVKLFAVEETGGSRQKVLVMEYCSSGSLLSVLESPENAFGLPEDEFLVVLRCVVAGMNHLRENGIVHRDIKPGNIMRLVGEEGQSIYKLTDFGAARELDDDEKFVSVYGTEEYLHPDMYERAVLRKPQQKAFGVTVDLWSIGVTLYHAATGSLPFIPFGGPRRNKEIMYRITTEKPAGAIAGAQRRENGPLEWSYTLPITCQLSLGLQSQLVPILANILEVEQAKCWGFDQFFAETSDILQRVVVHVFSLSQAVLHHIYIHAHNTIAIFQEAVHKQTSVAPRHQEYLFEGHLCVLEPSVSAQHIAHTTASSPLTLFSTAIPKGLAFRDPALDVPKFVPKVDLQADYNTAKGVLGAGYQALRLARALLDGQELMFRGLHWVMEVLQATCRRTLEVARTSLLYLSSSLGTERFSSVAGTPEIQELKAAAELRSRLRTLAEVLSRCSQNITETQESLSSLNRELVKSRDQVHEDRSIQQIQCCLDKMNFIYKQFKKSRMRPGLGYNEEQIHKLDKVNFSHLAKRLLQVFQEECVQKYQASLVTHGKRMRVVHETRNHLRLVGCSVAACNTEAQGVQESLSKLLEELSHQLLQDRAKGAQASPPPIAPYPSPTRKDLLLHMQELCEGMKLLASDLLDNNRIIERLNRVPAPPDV

[8] = biological target: Tyrosine-protein kinase Fgr (Homo sapiens) (UniProt P09769); assay: Selectivity interaction (KinomeScan (DiscoverX)) EUB0000655a FGR; settings: at 10 µM
Chain of Tyrosine-protein kinase Fgr (Homo sapiens) (P09769 2-529 limits assumed): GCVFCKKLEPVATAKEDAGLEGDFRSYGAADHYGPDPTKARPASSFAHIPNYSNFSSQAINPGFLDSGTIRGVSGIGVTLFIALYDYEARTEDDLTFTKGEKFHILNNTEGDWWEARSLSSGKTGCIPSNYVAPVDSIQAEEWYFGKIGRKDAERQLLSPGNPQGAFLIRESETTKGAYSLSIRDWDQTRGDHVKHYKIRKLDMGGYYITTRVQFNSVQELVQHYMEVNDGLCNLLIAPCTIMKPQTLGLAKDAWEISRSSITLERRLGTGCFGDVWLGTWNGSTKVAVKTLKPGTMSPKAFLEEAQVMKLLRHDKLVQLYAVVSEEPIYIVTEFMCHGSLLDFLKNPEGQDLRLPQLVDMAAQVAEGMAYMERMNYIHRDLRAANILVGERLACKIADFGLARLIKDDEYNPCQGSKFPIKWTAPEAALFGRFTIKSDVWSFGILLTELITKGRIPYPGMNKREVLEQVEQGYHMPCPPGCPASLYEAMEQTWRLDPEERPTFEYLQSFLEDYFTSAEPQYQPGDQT

Chain of Cyclin-dependent kinase-like 3 (Homo sapiens) (Q8IVW4 whole entry, looked up): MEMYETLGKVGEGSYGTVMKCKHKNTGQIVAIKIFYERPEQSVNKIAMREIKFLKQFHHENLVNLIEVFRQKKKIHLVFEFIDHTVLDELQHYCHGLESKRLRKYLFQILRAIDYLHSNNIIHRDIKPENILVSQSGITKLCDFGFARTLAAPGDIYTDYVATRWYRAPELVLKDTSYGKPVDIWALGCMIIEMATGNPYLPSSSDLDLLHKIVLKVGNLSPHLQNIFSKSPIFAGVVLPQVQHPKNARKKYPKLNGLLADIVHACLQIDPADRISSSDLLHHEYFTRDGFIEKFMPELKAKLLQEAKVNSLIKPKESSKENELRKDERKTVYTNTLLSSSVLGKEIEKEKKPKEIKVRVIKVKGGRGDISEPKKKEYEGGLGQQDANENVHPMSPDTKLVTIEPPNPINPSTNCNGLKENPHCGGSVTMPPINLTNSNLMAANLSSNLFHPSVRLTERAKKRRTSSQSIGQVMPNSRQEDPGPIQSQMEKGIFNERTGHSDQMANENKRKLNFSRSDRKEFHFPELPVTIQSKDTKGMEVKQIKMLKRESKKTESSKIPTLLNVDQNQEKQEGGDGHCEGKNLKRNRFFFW

Question: How did the % of control [1] turn out when `O=C(NOC[C@H](O)CO)c1ccc(F)c(F)c1Nc1ccc(I)cc1F` was run?
Answer: 98%

Question: For `Cc1ccc(-c2ccc3c(ccc4sc5c(c43)NC[C@@H](C)NC5=O)n2)cn1`, which % of inhibition [2] is on record?
Answer: 10%

Question: `C=CC(=O)Nc1cccc(C(=O)Nc2ccc(Nc3cc(-c4[nH]c(SC)nc4C)ccn3)cc2)c1` was tested. Which % of control [3] did it give?
Answer: 103%

Question: `N#Cc1cccc(-c2c[nH]c3ncnc(N4CCOCC4)c23)c1` was tested. Which % of inhibition [4] did it give?
Answer: 14%

Question: `CNC(=O)Nc1ccc(-c2nc(N3CC4CCC(C3)O4)c3cnn(C4CCC5(CC4)OCCO5)c3n2)cc1` was tested. Which % of control [5] did it give?
Answer: 88%

Question: How did the dTM [6] turn out when `CC(C)(O)[C@H](F)CN1Cc2cc(NC(=O)c3cnn4cccnc34)c(N3CCOCC3)cc2C1=O` was run?
Answer: 2.1 K

Question: How did the % of inhibition [7] turn out when `CC[C@@H]1[C@H](F)C(=O)N[C@@H]1COc1nccc2cc(C(N)=O)c(OC)cc12` [ZIMLOVISERTIB] was run?
Answer: -29.9%

Question: Which % of control [8] does the source give for `CN(C)CCOc1ccc(-c2nc(-c3ccncc3)c(-c3ccc4c(c3)CC/C4=N\O)[nH]2)cc1` here?
Answer: 87%
